Key:
Type in all cases: in vivo
Diabrotica balteata = Diabrotica balteata (corn root worm), maize sprouts sprayed, L2 larvae; conditions: 96 h, application rate 200 ppm, 4 days after infestation, L2 larvae, read-out: effect in at least one of the two categories (mortality or growth inhibition)
Experimental: Diabrotica Balteata (Corn Root Worm)
Maize sprouts placed onto an agar layer in 24-well microtiter plates were treated with aqueous test solutions prepared from 10,000 ppm DMSO stock solutions by spraying. After drying, the plates were infested with L2 larvae (6 to 10 per well). The samples were assessed for mortality and growth inhibition in comparison to untreated samples 4 days after infestation.

Euschistus heros = Euschistus heros (neotropical brown stink bug), soybean leaves sprayed, N2 nymphs; conditions: 120 h, application rate 200 ppm, 5 days after infestation, N2 nymphs, read-out: effect in at least one of the two categories (mortality or growth inhibition)
Experimental: Euschistus heros (Neotropical Brown Stink Bug)
Soybean leaves on agar in 24-well microtiter plates were sprayed with aqueous test solutions prepared from 10,000 ppm DMSO stock solutions. After drying the leaves were infested with N2 nymphs. The samples were assessed for mortality and growth inhibition in comparison to untreated samples 5 days after infestation.

Myzus persicae [1] = test: Myzus persicae (green peach aphid), intrinsic activity; conditions: 120 h, test rate 12 ppm, 5 days after infestation, sucrose solution, infested pea seedlings, read-out: mortality
Text: Myzus persicae (Green Peach Aphid). Intrinsic Activity
Test compounds prepared from 10,000 ppm DMSO stock solutions were applied by pipette into 24-well microtiter plates and mixed with sucrose solution. The plates were closed with a stretched Parafilm. A plastic stencil with 24 holes was placed onto the plate and infested pea seedlings were placed directly on the Parafilm. The infested plate was closed with a gel blotting paper and another plastic stencil and then turned upside down. The samples were assessed for mortality 5 days after infestation.

Plutella xylostella = Plutella xylostella (diamond back moth), artificial diet, L2 larvae; conditions: 120 h, application rate 200 ppm, 5 days after infestation, L2 larvae, read-out: effect in at least one of the two categories (mortality or growth inhibition)
Experimental: Plutella xylostella (Diamond Back Moth)
24-well microtiter plates with artificial diet were treated with aqueous test solutions prepared from 10,000 ppm DMSO stock solutions by pipetting. After drying, the plates were infested with L2 larvae (10 to 15 per well). The samples were assessed for mortality and growth inhibition in comparison to untreated samples 5 days after infestation.

Spodoptera littoralis = Spodoptera littoralis (Egyptian cotton leaf worm), cotton leaf discs, L1 larvae; conditions: foliar, 72 h, application rate 200 ppm, 3 days after infestation, L1 larvae, read-out: control (mortality, anti-feedant effect or growth inhibition)
Experimental: Spodoptera littoralis (Egyptian Cotton Leaf Worm)
Cotton leaf discs were placed onto agar in 24-well microtiter plates and sprayed with aqueous test solutions prepared from 10,000 ppm DMSO stock solutions. After drying the leaf discs were infested with five L1 larvae. The samples were assessed for mortality, anti-feeding effect, and growth inhibition in comparison to untreated samples 3 days after infestation. Control of Spodoptera littoralis by a test sample is given when at least one of the categories mortality, anti-feedant effect, and growth inhibition is higher than the untreated sample.

Tetranychus urticae = Tetranychus urticae (two-spotted spider mite), feeding/contact activity; conditions: foliar, 192 h, application rate 200 ppm, 8 days after infestation, bean leaf discs, read-out: mortality on mixed population (mobile stages)
Experimental: Tetranychus urticae (Two-Spotted Spider Mite): Feeding/Contact Activity
Bean leaf discs on agar in 24-well microtiter plates were sprayed with aqueous test solutions prepared from 10,000 ppm DMSO stock solutions. After drying the leaf discs were infested with a mite population of mixed ages. The samples were assessed for mortality on mixed population (mobile stages) 8 days after infestation.

Thrips tabaci = Thrips tabaci (onion thrips), feeding/contact activity; conditions: foliar, 144 h, application rate 200 ppm, 6 days after infestation, sunflower leaf discs, mixed ages, read-out: mortality
Experimental: Thrips tabaci (Onion thrips) Feeding/Contact Activity
Sunflower leaf discs were placed on agar in 24-well microtiter plates and sprayed with aqueous test solutions prepared from 10,000 ppm DMSO stock solutions. After drying the leaf discs were infested with a thrips population of mixed ages. The samples were assessed for mortality 6 days after infestation.

Myzus persicae [2] = test: Myzus persicae (green peach aphid), feeding/contact activity; conditions: foliar, 144 h, application rate 200 ppm, 6 days after infestation, sunflower leaf discs, mixed ages, read-out: mortality
Experimental: Myzus persicae (Green Peach Aphid): Feeding/Contact Activity
Sunflower leaf discs were placed onto agar in a 24-well microtiter plate and sprayed with aqueous test solutions prepared from 10,000 ppm DMSO stock solutions. After drying, the leaf discs were infested with an aphid population of mixed ages. The samples were assessed for mortality 6 days after infestation.

CS(=O)(=O)N1CC(NC(=O)c2ccc(C3=CSC(c4cc(Cl)c(Cl)c(Cl)c4)(C(F)(F)F)C3)cc2Cl)CO1 (centres unmarked) [Compound A1, 2-chloro-N-(2-methylsulfonylisoxazolidin-4-yl)-4-[2-(3,4,5-trichlorophenyl)-2-(trifluoromethyl)-3H-thiophen-4-yl]benzamide]
≥ 80%: percent effect (mortality or growth inhibition) at 200 ppm (Diabrotica balteata) | percent effect (mortality or growth inhibition) at 200 ppm (Euschistus heros) | mortality at 12 ppm (Myzus persicae [1]) | percent effect (mortality or growth inhibition) at 200 ppm (Plutella xylostella) | percent control (mortality, anti-feedant effect or growth inhibition) at 200 ppm (Spodoptera littoralis) | mortality at 200 ppm (Tetranychus urticae) | mortality at 200 ppm (Thrips tabaci)

Cc1cc(C2=NS[C@@](c3cc(Cl)cc(Cl)c3)(C(F)(F)F)C2)ccc1C(=O)NC1CON(S(C)(=O)=O)C1 (stereo partly drawn) [Compound A2, 4-[(5S)-5-(3,5-dichlorophenyl)-5-(trifluoromethyl)-4H-isothiazol-3-yl]-2-methyl-N-(2-methylsulfonylisoxazolidin-4-yl)benzamide]
≥ 80%: percent effect (mortality or growth inhibition) at 200 ppm (Diabrotica balteata) | percent effect (mortality or growth inhibition) at 200 ppm (Euschistus heros) | mortality at 12 ppm (Myzus persicae [1]) | mortality at 200 ppm (Myzus persicae [2]) | percent effect (mortality or growth inhibition) at 200 ppm (Plutella xylostella) | percent control (mortality, anti-feedant effect or growth inhibition) at 200 ppm (Spodoptera littoralis) | mortality at 200 ppm (Tetranychus urticae) | mortality at 200 ppm (Thrips tabaci)

Cc1cc(C2=COC(c3cc(Cl)cc(Cl)c3)(C(F)(F)F)C2)ccc1C(=O)NC1CON(S(C)(=O)=O)C1 (centres unmarked) [Compound A3, 4-[2-(3,5-dichlorophenyl)-2-(trifluoromethyl)-3H-furan-4-yl]-2-methyl-N-(2-methylsulfonylisoxazolidin-4-yl)benzamide]
≥ 80%: percent effect (mortality or growth inhibition) at 200 ppm (Diabrotica balteata) | percent effect (mortality or growth inhibition) at 200 ppm (Euschistus heros) | mortality at 12 ppm (Myzus persicae [1]) | percent effect (mortality or growth inhibition) at 200 ppm (Plutella xylostella) | percent control (mortality, anti-feedant effect or growth inhibition) at 200 ppm (Spodoptera littoralis) | mortality at 200 ppm (Tetranychus urticae) | mortality at 200 ppm (Thrips tabaci)

Cc1cc(C2=NCC(c3cc(Cl)c(F)c(Cl)c3)(C(F)(F)F)C2)ccc1C(=O)N[C@H]1CON(S(=O)(=O)N(C)C)C1 (stereo partly drawn) [Compound A10, 4-[3-(3,5-dichloro-4-fluoro-phenyl)-3-(trifluoromethyl)-2,4-dihydropyrrol-5-yl]-N-[(4R)-2-(dimethylsulfamoyl)isoxazolidin-4-yl]-2-methyl-benzamide]
≥ 80%: percent effect (mortality or growth inhibition) at 200 ppm (Diabrotica balteata) | percent effect (mortality or growth inhibition) at 200 ppm (Euschistus heros) | mortality at 200 ppm (Myzus persicae [2]) | percent effect (mortality or growth inhibition) at 200 ppm (Plutella xylostella) | percent control (mortality, anti-feedant effect or growth inhibition) at 200 ppm (Spodoptera littoralis) | mortality at 200 ppm (Tetranychus urticae) | mortality at 200 ppm (Thrips tabaci)

Cc1cc(C2=COC(c3cc(Cl)cc(Cl)c3)(C(F)(F)F)C2)ccc1C(=O)N[C@H]1CON(S(=O)(=O)N(C)C)C1 (stereo partly drawn) [Compound A12, 4-[2-(3,5-dichlorophenyl)-2-(trifluoromethyl)-3H-furan-4-yl]-N-[(4R)-2-(dimethylsulfamoyl)isoxazolidin-4-yl]-2-methyl-benzamide]
≥ 80%: percent effect (mortality or growth inhibition) at 200 ppm (Diabrotica balteata) | percent effect (mortality or growth inhibition) at 200 ppm (Euschistus heros) | mortality at 200 ppm (Myzus persicae [2]) | percent effect (mortality or growth inhibition) at 200 ppm (Plutella xylostella) | percent control (mortality, anti-feedant effect or growth inhibition) at 200 ppm (Spodoptera littoralis) | mortality at 200 ppm (Tetranychus urticae) | mortality at 200 ppm (Thrips tabaci)

Cc1cc(C2=NS[C@@](c3cc(Cl)cc(Cl)c3)(C(F)(F)F)C2)ccc1C(=O)N[C@H]1CON(S(=O)(=O)N(C)C)C1 [Compound A13, 4-[(5S)-5-(3,5-dichlorophenyl)-5-(trifluoromethyl)-4H-isothiazol-3-yl]-N-[(4R)-2-(dimethylsulfamoyl)isoxazolidin-4-yl]-2-methyl-benzamide]
≥ 80%: percent effect (mortality or growth inhibition) at 200 ppm (Diabrotica balteata) | percent effect (mortality or growth inhibition) at 200 ppm (Euschistus heros) | mortality at 200 ppm (Myzus persicae [2]) | percent effect (mortality or growth inhibition) at 200 ppm (Plutella xylostella) | percent control (mortality, anti-feedant effect or growth inhibition) at 200 ppm (Spodoptera littoralis) | mortality at 200 ppm (Tetranychus urticae) | mortality at 200 ppm (Thrips tabaci)

Cc1cc(C2=NCC(c3cc(Cl)cc(Cl)c3)(C(F)(F)F)C2)ccc1C(=O)N[C@H]1CON(S(=O)(=O)N(C)C)C1 (stereo partly drawn) [Compound A14, 4-[3-(3,5-dichlorophenyl)-3-(trifluoromethyl)-2,4-dihydropyrrol-5-yl]-N-[(4R)-2-(dimethylsulfamoyl)isoxazolidin-4-yl]-2-methyl-benzamide]
≥ 80%: percent effect (mortality or growth inhibition) at 200 ppm (Diabrotica balteata) | percent effect (mortality or growth inhibition) at 200 ppm (Euschistus heros) | mortality at 200 ppm (Myzus persicae [2]) | percent effect (mortality or growth inhibition) at 200 ppm (Plutella xylostella) | percent control (mortality, anti-feedant effect or growth inhibition) at 200 ppm (Spodoptera littoralis) | mortality at 200 ppm (Tetranychus urticae) | mortality at 200 ppm (Thrips tabaci)

Cc1cc(N2CCC(c3cc(Cl)cc(Cl)c3)(C(F)(F)F)C2)ncc1C(=O)N[C@H]1CON(S(=O)(=O)N(C)C)C1 (stereo partly drawn) [Compound A15, 6-[3-(3,5-dichlorophenyl)-3-(trifluoromethyl)pyrrolidin-1-yl]-N-[(4R)-2-(dimethylsulfamoyl)isoxazolidin-4-yl]-4-methyl-pyridine-3-carboxamide]
≥ 80%: percent effect (mortality or growth inhibition) at 200 ppm (Diabrotica balteata) | percent effect (mortality or growth inhibition) at 200 ppm (Euschistus heros) | percent effect (mortality or growth inhibition) at 200 ppm (Plutella xylostella) | percent control (mortality, anti-feedant effect or growth inhibition) at 200 ppm (Spodoptera littoralis) | mortality at 200 ppm (Tetranychus urticae)

Cc1nc(N2CCC(c3cc(Cl)cc(Cl)c3)(C(F)(F)F)C2)ccc1C(=O)N[C@H]1CON(S(=O)(=O)N(C)C)C1 (stereo partly drawn) [Compound A16, 6-[3-(3,5-dichlorophenyl)-3-(trifluoromethyl)pyrrolidin-1-yl]-N-[(4R)-2-(dimethylsulfamoyl)isoxazolidin-4-yl]-2-methyl-pyridine-3-carboxamide]
≥ 80%: percent effect (mortality or growth inhibition) at 200 ppm (Diabrotica balteata) | percent effect (mortality or growth inhibition) at 200 ppm (Euschistus heros) | mortality at 200 ppm (Myzus persicae [2]) | percent effect (mortality or growth inhibition) at 200 ppm (Plutella xylostella) | percent control (mortality, anti-feedant effect or growth inhibition) at 200 ppm (Spodoptera littoralis) | mortality at 200 ppm (Tetranychus urticae) | mortality at 200 ppm (Thrips tabaci)

Cc1nc(C2=CC(c3cc(Cl)cc(Cl)c3)(C(F)(F)F)OC2)ccc1C(=O)N[C@H]1CON(S(=O)(=O)N(C)C)C1 (stereo partly drawn) [Compound A17, 6-[5-(3,5-dichlorophenyl)-5-(trifluoromethyl)-2H-furan-3-yl]-N-[(4R)-2-(dimethylsulfamoyl)isoxazolidin-4-yl]-2-methyl-pyridine-3-carboxamide]
≥ 80%: percent effect (mortality or growth inhibition) at 200 ppm (Diabrotica balteata) | percent effect (mortality or growth inhibition) at 200 ppm (Euschistus heros) | percent effect (mortality or growth inhibition) at 200 ppm (Plutella xylostella) | percent control (mortality, anti-feedant effect or growth inhibition) at 200 ppm (Spodoptera littoralis) | mortality at 200 ppm (Tetranychus urticae) | mortality at 200 ppm (Thrips tabaci)

— patent publication US11104671B2, “Insecticidal compounds” (SYNGENTA PARTICIPATIONS AG, priority 2017, dated 2021)
